From patent publication US10077243B2, “Compounds for treating disorders mediated by metabotropic glutamate receptor 5, and methods of use thereof” (Sunovion Pharmaceuticals Inc., priority 2009, dated 2018)

Target: T1, human mGluR5 (Homo sapiens, UniProt P41594)
T1 construct: expressed in transfected cells; host or cells: HEK293 cells stably expressing rat GLAST (EAAT1), stably transfected with pcDNAzeo3.1 carrying synthetic human mGluR5 DNA; zeocin-selected single clones
Assay: In vitro cell-based FLIPR calcium assay for positive modulation of the activation of mGluR5 by glutamate (PAM EC50)
Settings: HEK293/GLAST cells expressing recombinant human mGluR5; FLIPR calcium signal; glutamate added at its EC20; read-out: mGluR5 PAM EC50
Summary of the method: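 PAM activity was measured as FLIPR calcium fluorescence in the presence of an EC20 glutamate concentration determined daily from a glutamate concentration-response curve. Cells were HEK293/GLAST clones expressing mGluR5, dye-loaded at 25 °C for 45–60 min in HEPES-buffered HBSS; vehicle control was 0.3% DMSO.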

T1 sequence (P41594 21-1212): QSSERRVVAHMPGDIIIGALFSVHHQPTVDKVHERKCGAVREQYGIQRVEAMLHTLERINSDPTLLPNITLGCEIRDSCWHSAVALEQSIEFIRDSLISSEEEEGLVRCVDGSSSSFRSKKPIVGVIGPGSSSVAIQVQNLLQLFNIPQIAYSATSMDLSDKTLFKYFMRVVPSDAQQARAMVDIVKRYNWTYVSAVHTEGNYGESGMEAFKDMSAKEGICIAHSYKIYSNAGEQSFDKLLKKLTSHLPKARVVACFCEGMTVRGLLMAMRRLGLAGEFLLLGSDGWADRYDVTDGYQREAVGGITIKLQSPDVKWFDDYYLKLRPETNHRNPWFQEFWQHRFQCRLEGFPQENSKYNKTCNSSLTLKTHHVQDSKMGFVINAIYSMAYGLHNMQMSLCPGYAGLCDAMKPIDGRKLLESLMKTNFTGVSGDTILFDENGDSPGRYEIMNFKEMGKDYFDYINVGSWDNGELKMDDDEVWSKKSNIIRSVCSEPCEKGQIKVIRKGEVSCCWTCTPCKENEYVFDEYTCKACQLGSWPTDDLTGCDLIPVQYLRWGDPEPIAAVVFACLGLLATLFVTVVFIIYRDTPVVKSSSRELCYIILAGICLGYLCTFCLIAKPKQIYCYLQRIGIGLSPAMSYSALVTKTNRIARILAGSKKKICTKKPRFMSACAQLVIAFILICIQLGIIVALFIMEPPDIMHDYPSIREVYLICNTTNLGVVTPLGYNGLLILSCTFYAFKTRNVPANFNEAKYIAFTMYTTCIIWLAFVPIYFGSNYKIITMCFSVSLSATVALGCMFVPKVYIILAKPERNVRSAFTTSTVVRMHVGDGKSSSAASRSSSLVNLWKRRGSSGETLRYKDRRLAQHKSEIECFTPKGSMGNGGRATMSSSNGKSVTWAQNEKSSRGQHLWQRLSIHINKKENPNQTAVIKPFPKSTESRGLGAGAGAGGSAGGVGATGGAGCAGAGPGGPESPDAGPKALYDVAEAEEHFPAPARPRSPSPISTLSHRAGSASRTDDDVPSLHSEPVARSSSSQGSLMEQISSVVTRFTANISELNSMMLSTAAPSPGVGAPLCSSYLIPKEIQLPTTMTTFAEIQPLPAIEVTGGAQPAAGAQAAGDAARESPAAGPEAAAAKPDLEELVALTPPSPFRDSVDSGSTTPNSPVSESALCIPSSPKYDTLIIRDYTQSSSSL

Structure (SMILES)	EC50 [nM]
CC1Cc2nc3cc(C#Cc4ccccn4)ccc3c(=O)n2C1 (single isomer, unassigned) [3.12/3.13 slower moving enantiomer (fraction 2), 2-methyl-6-(pyridin-2-ylethynyl)-2,3-dihydropyrrolo[2,1-b]quinazolin-9(1H)-one]	10 to 30
O=c1c2ccc(C#Cc3ccc(F)cc3)cc2nc2n1CCOCC2 [Example 6.1, 8-((4-fluorophenyl)ethynyl)-4,5-dihydro-1H-[1,4]oxazepino[5,4-b]quinazolin-11(2H)-one]	< 10
CC1CCc2nc3cc(C#Cc4ccccn4)ccc3c(=O)n2CC1 (single isomer, unassigned) [6.10/6.11 faster moving enantiomer (fraction 1), 8-methyl-3-(pyridin-2-ylethynyl)-7,8,9,10-tetrahydroazepino[2,1-b]quinazolin-12(6H)-one]	< 10
O=c1[nH]ccc2cc(C#Cc3cccc(F)c3)ccc12 [Example 18.1, 6-((3-fluorophenyl)ethynyl)isoquinolin-1(2H)-one]	300 to 1000
O=c1c2ccc(C#Cc3cccc(F)c3)cc2nc2n1CCOC2 [Example 4.1, 9-((3-fluorophenyl)ethynyl)-3,4-dihydro-[1,4]oxazino[3,4-b]quinzolin-6(1H)-one]	< 10
CC1(C)CCc2nc3nc(C#Cc4ccccn4)ccc3c(=O)n2C1 [Example 12.3, 8,8-dimethyl-2-(pyridin-2-ylethynyl)-7,8,9,10-tetrahydro-5H-dipyrido[1,2-a:2′,3′-d]pyrimidin-5-one]	30 to 100
CC1(C)CCc2nc3cc(/C=C/c4cccc(C#N)n4)ccc3c(=O)n2C1 [Example 20.13, (E)-6-(2-(8,8-dimethyl-11-oxo-7,8,9,11-tetrahydro-6H-pyrido[2,1-b]quinazolin-3-yl)vinyl)picolinonitrile]	10 to 30
Cn1cnc2cc(C#Cc3ccccc3)ccc2c1=O [Example 1.3, 3-methyl-7-(phenylethynyl)quinazolin-4(3H)-one]	100 to 300
N#Cc1cccc(C#Cc2ccc3c(=O)n4c(nc3c2)CCCCC4)n1 [Example 6.45]	10 to 30
C=C1CCc2nc3cc(C#Cc4cccc(F)c4)ccc3c(=O)n2C1 [Example 4.28, 3-((3-fluorophenyl)ethynyl)-8-methylene-8,9-dihydro-6H-pyrido[2,1-b]quinazolin-11(7H)-one]	10 to 30
O=c1c2ccc(C#Cc3cccc(F)c3)cc2nc2n1CCC1(CCCO1)CC2 (stereo not shown) [Example 6.26, 3-((3-fluorophenyl)ethynyl)-4′,5′,9,10-tetrahydro-3′H,6H-spiro[azepino[2,1-b]quinazoline-8,2′-furan]-12(7H)-one]	10 to 30
O=c1c2ccc(C#Cc3ccccn3)cc2nc2n1CC1CCCN1CC2 (single isomer, unassigned) [Example 9.4a/9.4b faster moving enantiomer (fraction 1), 9-(pyridin-2-ylethynyl)-2,3,5,6,14,14a-hexahydropyrrolo[2′,1′:3,4][1,4]diazepino[7,1-b]quinazolin-12(1H)-one]	30 to 100
O=C1CCn2c(nc3cc(C#Cc4cccc(F)c4)ccc3c2=O)CCN1 [Example 10.6, 11-((3-fluorophenyl)ethynyl)-2,3,5,6-tetrahydro-1H-[1,5]diazocino[2,1-b]quinazoline-4,8-dione]	30 to 100
CN1CCCc2nc3cc(C#Cc4ccc(F)cc4)ccc3c(=O)n2CC1 [Example 10.2, 9-((4-fluorophenyl)ethynyl)-3-methyl-3,4,5,6-tetrahydro-1H-[1,4]diazocino[8,1-b]quinazolin-12(2H)-one]	30 to 100
CN1C2CCC1Cn1c(nc3cc(C#Cc4cccc(F)c4)ccc3c1=O)C2 (stereo not shown) [Example 9.1, 3-((3-fluorophenyl)ethynyl)-14-methyl-8,9,10,11-tetrahydro-6H-7,10-epiminoazocino[2,1-b]quinazolin-13(7H)-one]	300 to 1000
CC1Cc2nc3cc(C#Cc4ccccn4)ccc3c(=O)n2CCN1C (stereo not shown) [Example 8.28, 3,4-dimethyl-8-(pyridin-2-ylethynyl)-2,3,4,5-tetrahydro-[1,4]diazepino[7,1-b]quinazolin-11(1H)-one]	300 to 1000

Structure (SMILES)	EC50 [nM]
COCc1nc2cc(C#Cc3cccc(F)c3)ccc2c(=O)n1C [Example 2.18, 7-((3-fluorophenyl)ethynyl)-2-(methoxymethyl)-3-methylquinazolin-4(3H)-one]	10 to 30
O=c1c2c(nc3cc(C#Cc4ccc(F)cc4)ccn13)CCCCC2 [Example 16.1, 3-((4-fluorophenyl)ethynyl)-7,8,9,10-tetrahydrocyclohepta[d]pyrido[1,2-a]pyrimidin-11(6H)-one]	< 10
CCCn1ccc2cc(C#Cc3ccc(F)cc3)ccc2c1=O [Example 18.2, 6-((4-fluorophenyl)ethynyl)-2-propylisoquinolin-1 (2H)-one]	300 to 1000
CCCn1cnc2cc(C#Cc3ccc(F)cc3)ccc2c1=O [Example 1.6, 7-((4-fluorophenyl)ethynyl)-3-propylquinazolin-4(3H)-one]	100 to 300
CCCN1CCc2nc3cc(C#Cc4cccc(F)c4)ccc3c(=O)n2CC1 [Example 8.8, 8-((3-fluorophenyl)ethynyl)-3-propyl-2,3,4,5-tetrahydro-[1,4]diazepino[7,1-b]quinazolin-11(1H)-one]	100 to 300
CC1(C)CCc2nc3cc(C#Cc4ccccn4)cnc3c(=O)n2C1 [Example 11.5, 8,8-dimethyl-3-(pyridin-2-ylethynyl)-8,9-dihydro-6H-dipyrido[1,2-a:3′,2′-d]pyrimidin-11(7H)-one]	100 to 300
CC1(C)CCn2c(nc3cc(/C=C/c4ccccc4F)ccc3c2=O)C1 [Example 20.6, (E)-3-(2-fluorostyryl)-7,7-dimethyl-8,9-dihydro-6H-pyrido[2,1-b]quinazolin-11(7H)-one]	30 to 100
CCC1CCCn2c1nc1cc(C#Cc3cccc(F)c3)ccc1c2=O (stereo not shown) [Example 4.8, 6-ethyl-3-((3-fluorophenyl)ethynyl)-8,9-dihydro-6H-pyrido[2,1-b]quinazolin-11(7H)-one]	100 to 300
O=C(Nc1ccc(F)cc1)c1ccn2c(=O)c3c(nc2c1)CCCCCC3 [Example 28.2, N-(4-fluorophenyl)-12-oxo-7,8,9,10,11,12-hexahydro-6H-cycloocta[d]pyrido[1,2-a]pyrimidine-3-carboxamide]	300 to 1000
Cc1noc(C)c1C#Cc1ccc2c(=O)n3c(nc2c1)CCC1(CC3)OCCO1 [Example 7.67]	10 to 30
O=c1c2c(nc3cc(C#Cc4ccc(F)cc4)ccn13)CCCCCC2 [Example 17.5, 3-((4-fluorophenyl)ethynyl)-8,9,10,11-tetrahydro-6H-cycloocta[d]pyrido[1,2-a]pyrimidin-12(7H)-one]	< 10
O=c1c2ccc(C#Cc3ccc(F)cn3)cc2nc2n1CCC1(CC2)OCCO1 [Example 7.13]	30 to 100
O=c1c2ccc(C#Cc3ccc(Cl)cc3)cc2nc2n1CCC1(CC2)OCCO1 [Example 7.09]	300 to 1000
O=c1c2ccc(C#Cc3cccc(F)c3)cc2nc2n1CC1CCCCN1C2 (stereo not shown) [Example 5.19, 3-((3-fluorophenyl)ethynyl)-8,9,10,11,11a,12-hexahydropyrido[1′,2′:4,5]pyrazino[2,1-b]quinazolin-14(6H)-one]	300 to 1000
O=c1c2ccc(C#Cc3ccccn3)cc2nc2n1CC1CCCN1CC2 (stereo not shown) [Example 9.4, 9-(pyridin-2-ylethynyl)-2,3,5,6,14,14a-hexahydropyrrolo[2′,1′:3,4][1,4]diazepino[7,1-b]quinazolin-12(1H)-one]	30 to 100
